Results from ChEMBL document CHEMBL4308917, “Tripeptide analogues of MG132 as protease inhibitors” (Bioorg Med Chem, 2019).
pIC50: −log10 of the molar value. Residues, ends and D or L forms follow the SMILES beside them. *: point of attachment. Cbz = O=C(OCc1ccccc1)*

Key:
[1] = target: T1, Proteasome Macropain subunit MB1 (Homo sapiens) (UniProt P28074); assay: Ratio of test compound IC50 to MG132 IC50 for chymotrypsin like activity of 26S proteasome beta 5 subunit (unknown origin) by fluorescence assay
T1 sequence (whole entry): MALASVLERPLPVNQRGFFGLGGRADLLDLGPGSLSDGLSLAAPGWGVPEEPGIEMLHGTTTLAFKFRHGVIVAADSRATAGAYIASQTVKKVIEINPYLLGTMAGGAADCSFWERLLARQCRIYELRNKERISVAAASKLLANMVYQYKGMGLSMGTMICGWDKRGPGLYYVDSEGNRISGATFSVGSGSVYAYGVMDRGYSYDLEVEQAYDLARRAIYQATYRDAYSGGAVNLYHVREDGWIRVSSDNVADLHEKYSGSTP

[2] = target: T2, Proteasome Macropain subunit MB1 (Homo sapiens, UniProt P28074); assay: Inhibition of chymotrypsin like activity of 26S proteasome beta 5 subunit (unknown origin) by fluorescence assay
T2 sequence (P28074 whole entry): T1 sequence (whole entry)

Plasmodium falciparum = assay: Antiplasmodial activity against Plasmodium falciparum D10 cultured in human O+ erythrocytes after 50 to 60 hrs by ethidium bromide staining-based flow cytometric analysis; type: functional, organism-based
[3] = Inhibition of recombinant ovine lung calpain-1 protease using BODIPY-FL casein as substrate measured at 30 secs time interval for 30 mins by fluorescence-based assay; parameters: species or system Ovis aries
Ovis aries = species: Ovis aries; assay: Potency index, ratio of MG132 IC50 to test compound IC50 for recombinant ovine lung calpain-2 protease using BODIPY-FL casein as substrate measured at 30 secs time interval for 30 mins by fluorescence-based assay
[4] = Selectivity ratio of IC50 for chymotrypsin like activity of 26S proteasome beta 5 subunit (unknown origin) to IC50 for recombinant ovine lung calpain 2 protease
[5] = Inhibition of recombinant ovine lung calpain-2 protease using BODIPY-FL casein as substrate measured at 30 secs time interval for 30 mins by fluorescence-based assay; parameters: species or system Ovis aries
[6] = target: T3, Calpain-2 catalytic subunit (Sus scrofa, UniProt P43367); assay: Inhibition of recombinant porcine calpain 2 protease using BODIPY-FL casein as substrate measured at 30 secs time interval for 30 mins by fluorescence-based assay
T3 sequence (P43367 whole entry): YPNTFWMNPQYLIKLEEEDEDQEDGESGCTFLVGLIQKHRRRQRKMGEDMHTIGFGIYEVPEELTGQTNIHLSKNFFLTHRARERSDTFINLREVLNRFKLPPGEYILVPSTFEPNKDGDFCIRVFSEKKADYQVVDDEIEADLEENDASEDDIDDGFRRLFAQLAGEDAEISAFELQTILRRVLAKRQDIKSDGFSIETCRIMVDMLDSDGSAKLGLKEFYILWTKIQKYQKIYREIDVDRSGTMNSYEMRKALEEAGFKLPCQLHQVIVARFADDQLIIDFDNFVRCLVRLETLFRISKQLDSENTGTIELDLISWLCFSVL

[7] = Selectivity ratio of IC50 for chymotrypsin like activity of rabbit 20S proteasome beta 5 to IC50 for recombinant ovine lung calpain 2 protease
[8] = Inhibition of recombinant ovine lung calpain-2 protease using BODIPY-FL casein as substrate after 10 mins by fluorescence-based assay; parameters: species or system Ovis aries
[9] = Inhibition of chymotrypsin like activity of rabbit 20S proteasome beta 5 subunit using Suc-LLVY-AMC as substrate preincubated for 15 mins followed by substrate addition and measured after 2 hrs by fluorescence assay; parameters: species or system Oryctolagus cuniculus

SMILES | Ratio IC50 [1] | pIC50 [2] | pIC50 (Plasmodium falciparum) | pIC50 [3] | Ratio IC50 (Ovis aries) | Ratio IC50 [4] | pIC50 [5] | pIC50 [6] | Ratio IC50 [7] | pIC50 [8] | pIC50 [9]
CC(C)C[C@@H](C=O)NC(=O)[C@H](CO)NC(=O)[C@H](CC(C)C)NC(=O)OCc1ccccc1 (Cbz-Leu-Ser-Leu-aldehyde) | 16 to 428 | 6.57 | 6.67 | 7.40 | > 3 | 2.7 | 7.00 | 6.80 |  |  | 
C#CCOc1ccc(C[C@@H](C=O)NC(=O)[C@H](CC(C)C)NC(=O)[C@H](CCCCN=[N+]=[N-])NC(=O)OCc2ccccc2)cc1 | 16 to 428 |  | 6.25 |  |  |  |  |  | 0.15 | 5.99 | 6.82
CC(C)C[C@H](NC(=O)OCc1ccccc1)C(=O)N[C@@H](CC(C)C)C(=O)N[C@@H](CC(C)C)C(=O)[C@@]1(C)CO1 | 16 to 428 | 6.66 | 5.21 | 5.01 |  | 0.05 | 5.36 | 5.38 |  |  | 
C#CCOc1ccc(C[C@@H](C=O)NC(=O)[C@H](CC(C)C)NC(=O)[C@H](Cc2ccccc2)NC(=O)OCc2ccccc2)cc1 | 16 to 428 | 6.72 | 6.60 | 7.09 | > 3 | 14 | 7.89 | 7.47 |  |  | 
CC(C)C[C@@H](C=O)NC(=O)[C@H](CC(C)C)NC(=O)[C@H](CC(C)C)NC(=O)OCc1ccccc1 [MG-132] (Cbz-Leu-Leu-Leu-aldehyde) |  |  | 7.46 | 6.92 |  |  | 6.51 |  |  |  | 
CC(C)C[C@@H](C=O)NC(=O)[C@H](CC(C)C)NC(=O)[C@H](Cc1ccccc1)NC(=O)OCc1ccccc1 (Cbz-Phe-Leu-Leu-aldehyde) | 16 to 428 | 6.86 | 7.21 | 8.10 | > 3 | 13 | 7.96 | 8.22 |  |  | 
CC(C)C[C@H](NC(=O)[C@H](Cc1ccccc1)NC(=O)OCc1ccccc1)C(=O)N[C@H](C=O)Cc1ccccc1 (Cbz-Phe-Leu-Phe-aldehyde) | 16 to 428 | 6.29 | 6.72 | 7.29 | > 3 | 86 | 8.22 | 7.57 |  |  | 
C#CCOc1ccc(C[C@@H](C=O)NC(=O)[C@@H](NC(=O)[C@H](CCCCN=[N+]=[N-])NC(=O)OCc2ccccc2)[C@@H](C)CC)cc1 | 16 to 428 |  | 6.84 |  |  |  |  |  | 0.05 | 6.41 | 7.70
